# In paper PMC9063844, “Synergic action of an inserted carbohydrate-binding module in a glycoside hydrolase family 5 endoglucanase” (Acta Crystallographica. Section D, Structural Biology, 2022):
# Assays:
# [1] = molecular target: T1, ΔCBM (Meiothermus taiwanensis, UniProt A0A399DY85, DEL251-380); test: X-ray crystal structure (crystal soaked with […] cellobiose); assay type: binding; settings: 1.53 Å; between Trp43 and Trp224
# T1 construct: gene celH; CBM-deleted MtGlu5, residues 1-235 joined to 366-455 (catalytic domain only); pET-21, C-terminal His6; E. coli BL21(DE3)
# T1 sequence (A0A399DY85 entry or part of it DEL251-380): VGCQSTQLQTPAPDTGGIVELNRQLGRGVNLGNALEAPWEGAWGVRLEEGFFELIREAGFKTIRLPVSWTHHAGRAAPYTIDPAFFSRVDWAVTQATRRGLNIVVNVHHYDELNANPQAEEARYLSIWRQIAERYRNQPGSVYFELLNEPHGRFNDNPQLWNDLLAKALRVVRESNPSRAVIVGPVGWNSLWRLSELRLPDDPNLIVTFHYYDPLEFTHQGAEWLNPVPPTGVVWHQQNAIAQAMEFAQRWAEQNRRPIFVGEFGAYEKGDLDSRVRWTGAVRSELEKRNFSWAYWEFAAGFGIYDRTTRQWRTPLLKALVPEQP
# [2] = molecular target: T2, MtGlu5 (Meiothermus taiwanensis, UniProt A0A399DY85); test: hydrolysis, specific activity (reducing sugar, DNS); assay type: biochemical; settings: optimum pH 5.0, 60 °C
# T2 construct: gene celH; residues 15-470, signal peptide removed, catalytic domain with inserted CBM29-like domain (236-365); pET-21, C-terminal His6; E. coli BL21(DE3)
# T2 sequence (A0A399DY85 entry or part of it): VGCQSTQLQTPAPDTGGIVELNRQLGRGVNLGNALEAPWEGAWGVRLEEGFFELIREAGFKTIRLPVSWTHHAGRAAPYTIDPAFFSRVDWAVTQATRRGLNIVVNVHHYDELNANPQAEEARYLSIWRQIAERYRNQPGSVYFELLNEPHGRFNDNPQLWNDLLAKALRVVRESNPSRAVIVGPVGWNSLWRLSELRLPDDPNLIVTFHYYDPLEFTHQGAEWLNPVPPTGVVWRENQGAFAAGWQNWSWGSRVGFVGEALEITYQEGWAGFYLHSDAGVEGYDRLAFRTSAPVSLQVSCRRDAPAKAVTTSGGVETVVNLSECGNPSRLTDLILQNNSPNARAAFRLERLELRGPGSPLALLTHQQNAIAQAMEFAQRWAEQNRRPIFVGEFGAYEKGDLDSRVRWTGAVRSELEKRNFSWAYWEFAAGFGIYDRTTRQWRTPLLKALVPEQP
# [3] = molecular target: T1, ΔCBM; test: turnover in the soaked crystal (glucose found instead of cellopentaose); assay type: binding; settings: crystal soak, 10 mM cellopentaose
# [4] = molecular target: T1, ΔCBM; test: X-ray crystal structure (crystal soaked with cellopentaose); assay type: binding; settings: 1.53 Å; between Trp43 and Trp224; glucose from cellopentaose cleavage
# [5] = molecular target: T2, MtGlu5; test: X-ray crystal structure (co-crystallised with CMC); assay type: binding; settings: 2.99 Å; glucose from CMC hydrolysis, stacked between Trp43 and Trp224 in the catalytic pocket (-2 or -3 subsite)
smiles,measurement,setting,value
OC[C@H]1O[C@@H](O[C@H]2[C@H](O)[C@@H](O)C(O)O[C@@H]2CO)[C@H](O)[C@@H](O)[C@@H]1O (some centres unmarked) [cellobiose],X-ray crystal structure (crystal soaked with 10 mM cellobiose),[1],ΔCBM crystals in complex with glucose and cellobiose were obtained by soaking with cellopentaose and cellobiose
OC[C@H]1O[C@@H](O[C@H]2[C@H](O)[C@@H](O)[C@H](O[C@H]3[C@H](O)[C@@H](O)[C@H](O[C@H]4[C@H](O)[C@@H](O)[C@H](O[C@H]5[C@H](O)[C@@H](O)C(O)O[C@@H]5CO)O[C@@H]4CO)O[C@@H]3CO)O[C@@H]2CO)[C@H](O)[C@@H](O)[C@@H]1O (some centres unmarked) [cellopentaose],"hydrolysis, specific activity (reducing sugar, DNS)",[2],"specific activities of MtGlu5 towards CMC, β-glucan (barley) and cellopentaose"
same,turnover in the soaked crystal (glucose found instead of cellopentaose),[3],presence of bound glucose rather than cellopentaose in the former crystal
OC[C@H]1OC(O)[C@H](O)[C@@H](O)[C@@H]1O (some centres unmarked) [glucose],X-ray crystal structure (crystal soaked with cellopentaose),[4],ΔCBM crystals in complex with glucose and cellobiose were obtained by soaking with cellopentaose and cellobiose
same,X-ray crystal structure (co-crystallised with CMC),[5],Bound glucose was observed in the MtGlu5 crystal
